Measured values: PubChem BioAssay AID248 (DTP/NCI, 2004)
“And” between values parts separate entries of the source, which are not always exact repeats. Equal values may be shown once. Toxic doses and inconclusive results are not listed.

System: L1210 leukemia ip in BDF1 mice, survival T/C
Test: NCI In Vivo Anticancer Drug Screen. Data for tumor model L1210 Leukemia (intraperitoneal) in B6D2F1 (BDF1) mice
Conditions: endpoint: mean survival time, higher = longer survival
How it was run: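 Tumor cells were implanted, animals were treated, and survival was followed. The result divides the treated measurement by the vehicle-control measurement.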

[1] = dose: 100.0 mg/kg/injection, schedule: Q01DX001 (ip), vehicle: carboxymethylcellulose (CMC)
[2] = dose: 200.0 mg/kg/injection, schedule: Q01DX001 (ip), vehicle: carboxymethylcellulose (CMC)
[3] = dose: 400.0 mg/kg/injection, schedule: Q01DX001 (ip), vehicle: carboxymethylcellulose (CMC)
[4] = dose: 100.0 mg/kg/injection, schedule: Q01DX001 (ip), vehicle: saline
[5] = dose: 100.0 mg/kg/injection, schedule: Q04DX003 (ip), vehicle: saline
[6] = dose: 200.0 mg/kg/injection, schedule: Q01DX001 (ip), vehicle: saline
[7] = dose: 200.0 mg/kg/injection, schedule: Q04DX003 (ip), vehicle: saline
[8] = dose: 400.0 mg/kg/injection, schedule: Q01DX001 (ip), vehicle: saline
[9] = dose: 400.0 mg/kg/injection, schedule: Q04DX003 (ip), vehicle: saline
[10] = dose: 25.0 mg/kg/injection, schedule: Q01DX009 (ip), vehicle: saline with Tween-80
[11] = dose: 50.0 mg/kg/injection, schedule: Q01DX009 (ip), vehicle: saline with Tween-80
[12] = dose: 100.0 mg/kg/injection, schedule: Q01DX009 (ip), vehicle: saline with Tween-80
[13] = dose: 100.0 mg/kg/injection, schedule: Q04DX003 (ip), vehicle: saline with Tween-80
[14] = dose: 200.0 mg/kg/injection, schedule: Q04DX003 (ip), vehicle: saline with Tween-80
[15] = dose: 100.0 mg/kg/injection, schedule: Q04DX002 (ip), vehicle: Klucel (hydroxypropylcellulose) (HPC)
[16] = dose: 200.0 mg/kg/injection, schedule: Q04DX002 (ip), vehicle: Klucel (hydroxypropylcellulose) (HPC)
[17] = dose: 400.0 mg/kg/injection, schedule: Q04DX002 (ip), vehicle: Klucel (hydroxypropylcellulose) (HPC)
[18] = dose: 100.0 mg/kg/injection, schedule: Q01DX001 (ip), vehicle: other
[19] = dose: 200.0 mg/kg/injection, schedule: Q01DX001 (ip), vehicle: other
[20] = dose: 200.0 mg/kg/injection, schedule: Q01DX009 (ip), vehicle: saline with Tween-80
[21] = dose: 400.0 mg/kg/injection, schedule: Q01DX001 (ip), vehicle: other
[22] = dose: 100.0 mg/kg/injection, schedule: Q04DX003 (ip), vehicle: Klucel (hydroxypropylcellulose) (HPC)
[23] = dose: 200.0 mg/kg/injection, schedule: Q04DX003 (ip), vehicle: Klucel (hydroxypropylcellulose) (HPC)
[24] = dose: 400.0 mg/kg/injection, schedule: Q04DX003 (ip), vehicle: Klucel (hydroxypropylcellulose) (HPC)
[25] = dose: 100.0 mg/kg/injection, schedule: Q01DX009 (ip), vehicle: Klucel (hydroxypropylcellulose) (HPC)
[26] = dose: 200.0 mg/kg/injection, schedule: Q01DX009 (ip), vehicle: Klucel (hydroxypropylcellulose) (HPC)
[27] = dose: 50.0 mg/kg/injection, schedule: Q01DX009 (ip), vehicle: Klucel (hydroxypropylcellulose) (HPC)

Compound: O=C(Nc1ccc(Cl)cc1)c1cc(Cl)cc(Cl)c1Br
- T/C [1]: 95 % of control
- T/C [2]: 93 % of control
- T/C [3]: 91 % of control

Compound: CCOC(=O)C(=Cc1csc2ccccc12)C(=O)OCC
- T/C [1]: 92 % of control
- T/C [2]: 94 % of control
- T/C [3]: 94 % of control

Compound: Nc1nc(N)c2nc(COc3ccccc3)cnc2n1
- T/C (dose: 20.0 mg/kg/injection, schedule: Q01DX009 (ip), vehicle: Klucel (hydroxypropylcellulose) (HPC)): 98 % of control
- T/C (dose: 40.0 mg/kg/injection, schedule: Q01DX009 (ip), vehicle: Klucel (hydroxypropylcellulose) (HPC)): 107 % of control
- T/C (dose: 80.0 mg/kg/injection, schedule: Q01DX009 (ip), vehicle: Klucel (hydroxypropylcellulose) (HPC)): 107 % of control

Compound: CCOC(=O)NCc1ccc(Cl)c(C(=O)O)c1
- T/C [4]: 105 % of control
- T/C [5]: 88 % of control
- T/C [6]: 94 % of control
- T/C [7]: 101 % of control
- T/C [8]: 93 % of control
- T/C [9]: 93 % of control

Compound: COc1ccc(OC)c(NC(=O)NNC(=O)c2ccc(Cl)cc2)c1
- T/C [10]: 95 % of control
- T/C [11]: 94 % of control
- T/C [12]: 92 % of control

Compound: CC(=O)C(C)(CCC#N)CCC#N
- T/C [11]: 105 % of control
- T/C [12]: 91 % of control
- T/C [13]: 108 % of control
- T/C [14]: 104 % of control

Compound: Nc1nc(=O)n(C2OC(CO)C(O)C2O)c2ccccc12 (centres undefined)
- T/C [4]: 101 % of control
- T/C [6]: 101 % of control
- T/C [8]: 101 % of control

Compound: [CH3][Sn]([CH3])([Cl])[Cl]
- T/C (dose: 29.0 mg/kg/injection, schedule: Q01DX009 (ip), vehicle: saline): 112 % of control

Compound: COC(=O)C1=C2C(C(=O)OC)C(O)=C(C(=O)OC)C2C(C(=O)OC)C1=O (centres undefined)
- T/C [4]: 97 % of control
- T/C (dose: 100.0 mg/kg/injection, schedule: Q01DX009 (ip), vehicle: saline): 100 % of control
- T/C [5]: 107 % of control
- T/C [6]: 105 % of control
- T/C (dose: 200.0 mg/kg/injection, schedule: Q01DX009 (ip), vehicle: saline): 97 % of control
- T/C [7]: 104 % of control
- T/C [8]: 103 % of control
- T/C (dose: 400.0 mg/kg/injection, schedule: Q01DX009 (ip), vehicle: saline): 95 % of control
- T/C [9]: 104 % of control

Compound: CCOC(=O)CSC#N
- T/C [4]: 101 % of control
- T/C [15]: 95 % of control
- T/C [6]: 101 % of control
- T/C [16]: 91 % of control
- T/C [8]: 95 % of control
- T/C [17]: 107 % of control

Compound: NNC(=O)CCNCCC(=O)NN
- T/C (dose: 100.0 mg/kg/injection, schedule: Q04DX002 (ip), vehicle: saline + alcohol): 94 % of control
- T/C (dose: 200.0 mg/kg/injection, schedule: Q04DX002 (ip), vehicle: saline + alcohol): 88 % of control

Compound: CCCCN(C)N=Nc1ccc([N+](=O)[O-])cc1C(N)=O
- T/C [18]: 100 % of control
- T/C [13]: 110 % of control
- T/C [19]: 105 % of control
- T/C [20]: 122 % of control
- T/C [14]: 109 % of control
- T/C (dose: 266.0 mg/kg/injection, schedule: Q01DX009 (ip), vehicle: saline with Tween-80): 160 % of control
- T/C [21]: 110 % of control
- T/C (dose: 400.0 mg/kg/injection, schedule: Q01DX009 (ip), vehicle: saline with Tween-80): 165 % of control and 170 % of control
- T/C (dose: 400.0 mg/kg/injection, schedule: Q04DX003 (ip), vehicle: saline with Tween-80): 115 % of control
- T/C (dose: 600.0 mg/kg/injection, schedule: Q01DX009 (ip), vehicle: saline with Tween-80): 200 % of control

Compound: CCCCCCNS(=O)(=O)c1ccc([N+](=O)[O-])cc1
- T/C [22]: 100 % of control
- T/C [23]: 100 % of control
- T/C [24]: 93 % of control

Compound: CC(=O)NN(CCN(NC(C)=O)C(C)=O)C(C)=O
- T/C [5]: 104 % of control
- T/C [7]: 95 % of control
- T/C [9]: 101 % of control

Compound: Nc1cccc(Cl)c1
- T/C [10]: 92 % of control
- T/C [11]: 92 % of control
- T/C [12]: 95 % of control
- T/C [22]: 95 % of control
- T/C [23]: 90 % of control

Compound: CC(=O)OCC1OC(OC2=C(c3ccccc3)C(=O)C(OC3OC(COC(C)=O)C(OC(C)=O)C(OC(C)=O)C3OC(C)=O)=C(c3ccccc3)C2=O)C(OC(C)=O)C(OC(C)=O)C1OC(C)=O (centres undefined)
- T/C (dose: 100.0 mg/kg/injection, schedule: Q04DX002 (ip), vehicle: saline with Tween-80): 91 % of control
- T/C (dose: 200.0 mg/kg/injection, schedule: Q04DX002 (ip), vehicle: saline with Tween-80): 91 % of control
- T/C (dose: 400.0 mg/kg/injection, schedule: Q04DX002 (ip), vehicle: saline with Tween-80): 95 % of control

Compound: CCOC(=O)c1ccc(Nc2sc(C(=O)c3ccc(C)cc3C)c(N)c2C#N)cc1
- T/C (dose: 100.0 mg/kg/injection, schedule: Q04DX002 (ip), vehicle: gum acacia): 89 % of control
- T/C (dose: 200.0 mg/kg/injection, schedule: Q04DX002 (ip), vehicle: gum acacia): 92 % of control
- T/C (dose: 400.0 mg/kg/injection, schedule: Q04DX002 (ip), vehicle: gum acacia): 99 % of control

Compound: CC(C)(C)C(=O)CN1C(=O)c2ccccc2C1=O
- T/C (dose: 100.0 mg/kg/injection, schedule: Q01DX001 (ip), vehicle: Klucel (hydroxypropylcellulose) (HPC)): 108 % of control
- T/C [25]: 96 % of control and 97 % of control
- T/C [15]: 101 % of control and 103 % of control
- T/C [22]: 101 % of control
- T/C (dose: 200.0 mg/kg/injection, schedule: Q01DX001 (ip), vehicle: Klucel (hydroxypropylcellulose) (HPC)): 112 % of control
- T/C [26]: 96 % of control and 104 % of control
- T/C [16]: 98 % of control and 103 % of control
- T/C [23]: 95 % of control
- T/C (dose: 400.0 mg/kg/injection, schedule: Q01DX001 (ip), vehicle: Klucel (hydroxypropylcellulose) (HPC)): 118 % of control
- T/C (dose: 400.0 mg/kg/injection, schedule: Q01DX009 (ip), vehicle: Klucel (hydroxypropylcellulose) (HPC)): 97 % of control and 108 % of control
- T/C [17]: 103 % of control and 109 % of control
- T/C [24]: 103 % of control

Compound: NS(=O)(=O)Cl
- T/C (dose: 100.0 mg/kg/injection, schedule: Q01DX009 (sc), vehicle: olive oil, sesame oil, peanut oil): 98 % of control
- T/C (dose: 100.0 mg/kg/injection, schedule: Q04DX003 (sc), vehicle: olive oil, sesame oil, peanut oil): 102 % of control
- T/C (dose: 200.0 mg/kg/injection, schedule: Q01DX009 (sc), vehicle: olive oil, sesame oil, peanut oil): 100 % of control
- T/C (dose: 200.0 mg/kg/injection, schedule: Q04DX003 (sc), vehicle: olive oil, sesame oil, peanut oil): 103 % of control
- T/C (dose: 400.0 mg/kg/injection, schedule: Q01DX009 (sc), vehicle: olive oil, sesame oil, peanut oil): 95 % of control
- T/C (dose: 400.0 mg/kg/injection, schedule: Q04DX003 (sc), vehicle: olive oil, sesame oil, peanut oil): 108 % of control

Compound: COC(OC)C1C=CC=CC=C1
- T/C [20]: 95 % of control

Compound: CCCCCCCCCCCC(=O)Nc1ccccc1
- T/C (dose: 12.5 mg/kg/injection, schedule: Q01DX009 (ip), vehicle: Klucel (hydroxypropylcellulose) (HPC)): 92 % of control
- T/C (dose: 25.0 mg/kg/injection, schedule: Q01DX009 (ip), vehicle: Klucel (hydroxypropylcellulose) (HPC)): 90 % of control
- T/C [27]: 110 % of control

Compound: O=C(O)/C=C/c1c2ccc(=O)cc-2oc2cc(O)ccc12
- T/C [22]: 96 % of control
- T/C [23]: 91 % of control
- T/C [24]: 105 % of control

Compound: CC1=CC(c2c(O)cccc2O)C(=C(C)C)CC1 (centres undefined)
- T/C [27]: 95 % of control
- T/C [25]: 95 % of control
- T/C [26]: 95 % of control

Compound: Oc1ccccc1C=NCCN=Cc1ccccc1O.[Zn+2]
- T/C [18]: 103 % of control
- T/C [19]: 114 % of control
- T/C [21]: 100 % of control

Compound: CCN1OCC(C)(C(=O)OC)C1C (centres undefined)
- T/C [5]: 102 % of control
- T/C [7]: 97 % of control
- T/C [9]: 107 % of control
